The record followed here is patent publication US10100284B2, “Method for inducing differentiation of pluripotent stem cells into endodermal cells” (TOAGOSEI CO., LTD., priority 2013, dated 2018).

Where no end group is shown, it is not given here.

In the assay the test system is iPS cells (clone name: 201B2 or 201B7). Put plainly: AFP dot blotting of iPS cell culture supernatant. Type of assay: cell-based, human. The note with it: peptide concentration 6.0 μM; 8th to 20th day of culture in the presence of the peptide; FIG. 5. The protocol:
The stem cell differentiation-inducing activities of the differentiation-inducing synthetic peptides (Samples 2-7) obtained in Example 1 above were evaluated by measuring changes over time in AFP expression levels (typically, extracellular excretion levels). AFP is a differentiation marker protein that is known to be in expressed in cells that have differentiated into liver precursor cells in particular of the endodermal cells. iPS cells that had been cultured and passaged in vitro were used as the test cells. The details of the evaluation test are as follows.
As in Example 3, the peptides of Samples 2 through 7 were added to a peptide concentration of 6.0 μM to added to medium containing cultured iPS cells (clone name: 201B2 or 201B7), and the cells were cultured (Sample Groups 2 through 7). A peptide free-group (comparative example) using cells cultured under the same conditions as in Sample groups 2 through 7 without the addition of a peptide was also established as a control group. […]
After completion of the antigen-antibody reaction with the secondary antibody, Lumina Crescendo Western HRP Substrate (Merck Millipore Corp.) was dripped on the nitrocellulose membrane to react the substrate with the HRP-labeled antibody (secondary antibody), and the target protein (AFP) was detected with a LAS-3000 luminescent image analyzer (Fuji Film).

For “RLLLLLLVGLTAPALAKKRTLRKNDRKKR-COOH (RLLLLLLVGLTAPALAKKRTLRKNDRKKR-OH) [Sample 4]”, the “amount of AFP in the culture supernatant in comparison with peptide-free group with the same culture time” value is recorded as “particularly dramatic”.
